Values quoted from earlier work as cited in patent publication US20150182489A1, “GOLD (III) COMPOUNDS AND USE FOR TREATING CANCER” (King Abdulaziz City for Science and Technology, priority 2013, published 2015).
Where two headings read alike, the source gives them in different places.

| Structure (SMILES) | hepatotoxicity relative to 5-FU treatment (rats liver; rats liver (El-Sayyad et al)) | hepatic histopathology (rats liver; 10 mg/kg (Avci et al)) | hepatic histopathology (rats liver; single intraperitoneal 6.5 mg/kg dose (Kart et al)) | renal histopathology (rats; rats, 0.4 mg/kg intraperitoneally for 8 weeks (Ravindra et al)) | renal histopathology (rats; rats, 15 mg/kg of body weight intraperitoneally (Hanigan et al)) | renal histopathology (rats; single intraperitoneal dose of 7.5 mg/kg (Atasayara et al)) |
| --- | --- | --- | --- | --- | --- | --- |
| COc1cccc2c1C(=O)c1c(O)c3c(c(O)c1C2=O)C[C@@](O)(C(=O)CO)C[C@@H]3O[C@H]1C[C@H](N)[C@H](O)[C@H](C)O1 [doxorubicin] | increased hepatoxicity in comparison to 5-FU treatment | – | – | – | – | – |
| N.N.[Cl][Pt][Cl] [cisplatin, cis-diamminedichloroplatinum(II)] | – | sinusoidal congestion, hydropic and vacuolar degeneration, extensive disorganization in hepatocytes, and significant fibrosis around central venules and expanded periportal areas | moderate to severe hydropic degeneration in centrilobular zones extending towards the portal region | marked proximal tubular dilation and desquamation along with acute tubular necrosis | grade 4 tubular necrosis | remarkable epithelial vacuolation, necrosis, and desquamation of cells with protein casts in renal tubules |
